One data set deals with KB. Briefly: Cytotoxicity against human KB cells. In kind it is functional.
Data set [1] in a line: Cytotoxicity against african green monkey Vero cells. Type of data set: cell-based. Conditions: chlorocebus sabaeus, read-out: ED50 (the source's name).

Converted amounts (≈) assume the structure as drawn.

The molecule `CCCCCCCCCCCC[C@H](O)[C@@H](O)CC/C=C\CC[C@@H](O)[C@H]1CCC(CCCCCC(O)CC2=CC(C)OC2=O)O1` (some centres not stated) [CORIACIN] displayed an ED50 with KB of under 3 ×10⁻⁷ ug/ml. The CC50 in data set [1] turned out to be 0.0057 µg/mL (≈ 0.00915 µM).

Regarding `CC(=O)O[C@H]1C(=O)[C@@]2(C)[C@H]([C@H](OC(=O)c3ccccc3)[C@]3(O)C[C@H](OC(=O)[C@H](O)[C@@H](NC(=O)c4ccccc4)c4ccccc4)C(C)=C1C3(C)C)[C@]1(OC(C)=O)CO[C@@H]1C[C@@H]2O` [PACLITAXEL], the EC50 with KB (Homo sapiens, KB, read-out: ED50 (the source's name)) was 0.02 µg/mL (≈ 0.0234 µM). In data set [1], the CC50 was over 0.3 µg/mL.

Molecule `CCCCCCCCCCCC[C@H](O)[C@@H](O)CC/C=C\CC/C=C\CCC(O)CCCCCC(O)CC1=CC(C)OC1=O` (some centres not stated) [CORIADIENIN] returned an ED50 in the data set with KB of 1.6 ×10⁻⁶ ug/ml. Moreover, in data set [1], the CC50 was determined as 0.15 µg/mL (≈ 0.247 µM).

The molecule `CCCCCCCCCCCC[C@H](O)[C@@H](O)CCC1OC1CCC1OC1CCC(O)CCCCCC(O)CC1=CC(C)OC1=O` (some centres not stated) [BISEPOXYCORIADIENIN] showed an ED50 in the data set on KB of 2.5 ×10⁻⁷ ug/ml. In addition, the CC50 in data set [1] is 0.013 µg/mL (≈ 0.0203 µM).

As for `CCCCCCCCCCCCCCC(O)C(O)CC[C@H](O)[C@H]1CC[C@H](CCCCC[C@@H](O)CC2=C[C@H](C)OC2=O)O1` (some centres not stated) [GIGANTETRONENIN], the ED50 in the data set on KB is under 3 ×10⁻⁷ ug/ml. Besides, the CC50 in data set [1] is 0.0057 µg/mL (≈ 0.00955 µM).

`CCCCCCCCCCCC[C@H](O)[C@@H](O)CC/C=C\CC[C@@H](O)[C@H]1CCC(CCCCCCCC2=CC(C)OC2=O)O1` (some centres not stated): the ED50 in the data set on KB amounted to 6 ×10⁻⁴ ug/ml. Further, in data set [1], the CC50 was 0.05 µg/mL (≈ 0.0824 µM).
